Measurements published in ChEMBL document CHEMBL3297733, “Discovery and optimization of pyrrolo[1,2-a]pyrazinones leads to novel and selective inhibitors of PIM kinases” (Bioorg Med Chem, 2013).

How the values were obtained:
Casein kinase II = Casein kinase II (Homo sapiens, UniProt P19784+P67870+P68400); test: Inhibition of CK2 (unknown origin); type: protein-complex assay
MV4-11 = test: Cytotoxicity against human MV4-11 cells after 72 hrs by CellTitre-Glo assay; type: functional, cell-based; settings: MV4-11, 72 h
RPMI-8226 = test: Cytotoxicity against human RPMI8226 cells after 72 hrs by CellTitre-Glo assay; type: functional, cell-based; settings: RPMI-8226, 72 h
[1] = Inhibition of CDK2/CYCA (unknown origin); parameters: species or system Homo sapiens
[2] = Cytotoxicity against mouse BA/F3 cells after 72 hrs by CellTitre-Glo assay; type: cell-based; settings: BaF3, 72 h
Cytochrome P450 3A4 = Cytochrome P450 3A4 (Homo sapiens, UniProt P08684); test: Inhibition of CYP3A4 (unknown origin); type: ADME
[3] = biological target: Mast/stem cell growth factor receptor Kit (Homo sapiens, UniProt P10721); test: Inhibition of KIT (unknown origin)
[4] = biological target: Proto-oncogene tyrosine-protein kinase receptor Ret (Homo sapiens, UniProt P07949); test: Inhibition of RET (unknown origin)
hERG (KCNH2) = hERG (KCNH2) (Homo sapiens, UniProt Q12809); test: Inhibition of human ERG channel at 10 uM
[5] = biological target: Maternal embryonic leucine zipper kinase (Homo sapiens, UniProt Q14680); test: Inhibition of MELK (unknown origin)
[6] = biological target: Serine/threonine-protein kinase pim-1 (Mus musculus) (UniProt P06803); test: Inhibition of PIM1 in mouse BA/F3 cells assessed as phosphorylation of 4EBP1 at T37/T46 after 24 hrs by Western blotting analysis; type: cell-based; settings: BaF3
[7] = biological target: Mitogen-activated protein kinase 14 (Homo sapiens, UniProt Q16539); test: Inhibition of P38alpha (unknown origin)
[8] = biological target: Serine/threonine-protein kinase Nek6 (Homo sapiens, UniProt Q9HC98); test: Inhibition of NEK6 (unknown origin)
[9] = Inhibition of SULU1 (unknown origin); parameters: species or system Homo sapiens
[10] = biological target: Serine/threonine-protein kinase NIM1 (Homo sapiens, UniProt Q8IY84); test: Inhibition of NIM1 (unknown origin)
[11] = Clearance in BALB/c mouse at 8.2 mg/kg, iv; type: ADME, organism-based; parameters: dose 8.2 mg/kg, route intravenous; settings: in vivo
[12] = Intrinsic clearance in mouse hepatocytes; type: ADME, cell-based, Hepatocyte; settings: read-out: CLH
[13] = biological target: Serine/threonine-protein kinase Chk1 (Homo sapiens, UniProt O14757); test: Inhibition of CHK1 (unknown origin)
[14] = biological target: Tyrosine-protein kinase JAK3 (Homo sapiens, UniProt P52333); test: Inhibition of JAK3 (unknown origin)
[15] = biological target: RAC-alpha serine/threonine-protein kinase (Homo sapiens, UniProt P31749); test: Inhibition of AKT1 (unknown origin)
[16] = biological target: Tyrosine-protein kinase Lyn (Homo sapiens, UniProt P07948); test: Inhibition of LYN (unknown origin)
[17] = biological target: MAP kinase-activated protein kinase 2 (Homo sapiens, UniProt P49137); test: Inhibition of MAPKAPK2 (unknown origin)
[18] = biological target: Serine/threonine-protein kinase pim-3 (Homo sapiens, UniProt Q86V86); test: Inhibition of human PIM3 using ARK-RERTYSFGHHA as substrate incubated for 60 mins prior to substrate addition by topcount scintillation counting analysis in presence of [P33gamma]-ATP
[19] = biological target: Eukaryotic elongation factor 2 kinase (Homo sapiens, UniProt O00418); test: Inhibition of EEF2K (unknown origin)
[20] = biological target: Platelet-derived growth factor receptor (Homo sapiens, UniProt P09619+P16234); test: Inhibition of PDGFR (unknown origin); type: protein-complex assay
[21] = biological target: Vascular endothelial growth factor receptor 3 (Homo sapiens, UniProt P35916); test: Inhibition of VGFR3 (unknown origin)
[22] = biological target: Protein kinase C beta type (Homo sapiens, UniProt P05771); test: Inhibition of PKC-beta (unknown origin)
[23] = Intrinsic clearance in human liver microsomes after 5 mins by LC-MS/MS analysis; type: ADME; settings: read-out: CLH
Ephrin type-A receptor 2 = Ephrin type-A receptor 2 (Homo sapiens, UniProt P29317); test: Inhibition of EphA2 (unknown origin)
Insulin receptor = Insulin receptor (Homo sapiens, UniProt P06213); test: Inhibition of IR (unknown origin)
[24] = biological target: Mitogen-activated protein kinase 1 (Homo sapiens, UniProt P28482); test: Inhibition of ERK2 (unknown origin)
[25] = AUC in BALB/c mouse at 8.2 mg/kg, po; type: ADME, organism-based; parameters: dose 8.2 mg/kg, route oral; settings: plasma
[26] = Intrinsic clearance in rat hepatocytes; type: ADME, cell-based, Hepatocyte; settings: read-out: CLH

Chain of Serine/threonine-protein kinase Chk1 (O14757 whole entry): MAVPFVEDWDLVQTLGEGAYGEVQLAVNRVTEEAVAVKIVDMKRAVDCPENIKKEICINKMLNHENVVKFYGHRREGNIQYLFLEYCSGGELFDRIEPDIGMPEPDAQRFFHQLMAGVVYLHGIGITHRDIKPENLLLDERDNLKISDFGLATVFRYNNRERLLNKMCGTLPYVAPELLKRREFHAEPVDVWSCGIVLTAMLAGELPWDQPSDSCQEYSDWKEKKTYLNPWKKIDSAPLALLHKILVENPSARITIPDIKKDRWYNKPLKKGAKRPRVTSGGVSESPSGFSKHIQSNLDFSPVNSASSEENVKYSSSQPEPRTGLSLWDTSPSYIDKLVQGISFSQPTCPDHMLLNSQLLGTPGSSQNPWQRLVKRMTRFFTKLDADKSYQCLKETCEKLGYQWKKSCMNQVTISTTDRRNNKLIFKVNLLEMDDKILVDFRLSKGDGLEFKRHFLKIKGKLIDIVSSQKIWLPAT
Chain of Mitogen-activated protein kinase 14 (Q16539 whole entry): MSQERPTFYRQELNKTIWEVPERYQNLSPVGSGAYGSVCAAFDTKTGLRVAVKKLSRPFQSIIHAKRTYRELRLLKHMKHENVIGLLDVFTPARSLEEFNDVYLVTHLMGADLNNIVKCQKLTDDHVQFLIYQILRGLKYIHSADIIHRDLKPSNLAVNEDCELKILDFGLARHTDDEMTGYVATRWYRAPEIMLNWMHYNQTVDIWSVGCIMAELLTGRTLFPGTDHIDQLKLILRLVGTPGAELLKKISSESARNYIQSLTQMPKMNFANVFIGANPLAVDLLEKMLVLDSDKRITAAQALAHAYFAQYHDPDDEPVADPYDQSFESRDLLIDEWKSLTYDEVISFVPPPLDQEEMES
Chain of Insulin receptor (P06213 28-758 limits assumed): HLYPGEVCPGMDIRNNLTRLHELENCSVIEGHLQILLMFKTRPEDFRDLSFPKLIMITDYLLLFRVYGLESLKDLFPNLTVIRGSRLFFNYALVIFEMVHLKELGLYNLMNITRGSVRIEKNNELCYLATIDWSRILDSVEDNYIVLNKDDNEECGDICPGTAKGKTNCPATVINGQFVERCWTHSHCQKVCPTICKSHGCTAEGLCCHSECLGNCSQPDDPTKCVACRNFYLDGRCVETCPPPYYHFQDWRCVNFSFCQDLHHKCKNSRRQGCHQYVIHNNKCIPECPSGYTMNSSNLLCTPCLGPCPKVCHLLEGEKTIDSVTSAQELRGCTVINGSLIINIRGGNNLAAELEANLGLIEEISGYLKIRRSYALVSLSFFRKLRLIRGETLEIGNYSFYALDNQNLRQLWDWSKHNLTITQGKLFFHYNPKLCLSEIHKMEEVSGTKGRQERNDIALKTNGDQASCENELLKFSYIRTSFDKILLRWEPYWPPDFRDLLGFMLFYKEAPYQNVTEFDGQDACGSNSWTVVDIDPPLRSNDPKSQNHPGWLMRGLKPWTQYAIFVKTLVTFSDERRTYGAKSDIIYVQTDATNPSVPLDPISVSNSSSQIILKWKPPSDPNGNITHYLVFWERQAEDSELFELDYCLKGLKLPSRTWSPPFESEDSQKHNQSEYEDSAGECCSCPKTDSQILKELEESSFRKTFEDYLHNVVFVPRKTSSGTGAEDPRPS
Chain of Insulin receptor (P06213 763-1382 limits assumed): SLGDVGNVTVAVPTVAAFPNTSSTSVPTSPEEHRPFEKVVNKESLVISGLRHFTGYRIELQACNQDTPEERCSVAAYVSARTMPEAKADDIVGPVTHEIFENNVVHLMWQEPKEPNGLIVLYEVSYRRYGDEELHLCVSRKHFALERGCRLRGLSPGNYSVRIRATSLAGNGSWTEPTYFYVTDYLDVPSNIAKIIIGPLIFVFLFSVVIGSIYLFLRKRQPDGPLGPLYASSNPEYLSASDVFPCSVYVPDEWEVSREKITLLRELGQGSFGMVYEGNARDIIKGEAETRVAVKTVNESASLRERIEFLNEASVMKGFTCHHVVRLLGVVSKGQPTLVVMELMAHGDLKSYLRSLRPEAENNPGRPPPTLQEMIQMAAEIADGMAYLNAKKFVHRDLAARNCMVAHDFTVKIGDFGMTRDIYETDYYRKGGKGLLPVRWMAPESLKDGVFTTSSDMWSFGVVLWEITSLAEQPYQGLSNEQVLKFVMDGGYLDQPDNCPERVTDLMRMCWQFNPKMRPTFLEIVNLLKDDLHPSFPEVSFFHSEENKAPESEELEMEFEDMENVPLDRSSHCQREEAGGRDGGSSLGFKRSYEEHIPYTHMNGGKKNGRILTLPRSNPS
Chain of Serine/threonine-protein kinase Nek6 (Q9HC98 whole entry): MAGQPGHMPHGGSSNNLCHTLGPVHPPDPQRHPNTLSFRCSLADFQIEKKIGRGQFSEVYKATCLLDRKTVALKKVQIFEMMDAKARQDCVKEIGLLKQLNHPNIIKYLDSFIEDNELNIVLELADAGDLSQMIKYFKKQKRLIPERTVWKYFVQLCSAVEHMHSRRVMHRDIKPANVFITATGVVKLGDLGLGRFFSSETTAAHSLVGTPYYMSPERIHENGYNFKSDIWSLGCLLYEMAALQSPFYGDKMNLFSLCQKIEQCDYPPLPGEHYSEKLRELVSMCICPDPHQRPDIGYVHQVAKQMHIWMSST
Chain of Protein kinase C beta type (P05771 whole entry): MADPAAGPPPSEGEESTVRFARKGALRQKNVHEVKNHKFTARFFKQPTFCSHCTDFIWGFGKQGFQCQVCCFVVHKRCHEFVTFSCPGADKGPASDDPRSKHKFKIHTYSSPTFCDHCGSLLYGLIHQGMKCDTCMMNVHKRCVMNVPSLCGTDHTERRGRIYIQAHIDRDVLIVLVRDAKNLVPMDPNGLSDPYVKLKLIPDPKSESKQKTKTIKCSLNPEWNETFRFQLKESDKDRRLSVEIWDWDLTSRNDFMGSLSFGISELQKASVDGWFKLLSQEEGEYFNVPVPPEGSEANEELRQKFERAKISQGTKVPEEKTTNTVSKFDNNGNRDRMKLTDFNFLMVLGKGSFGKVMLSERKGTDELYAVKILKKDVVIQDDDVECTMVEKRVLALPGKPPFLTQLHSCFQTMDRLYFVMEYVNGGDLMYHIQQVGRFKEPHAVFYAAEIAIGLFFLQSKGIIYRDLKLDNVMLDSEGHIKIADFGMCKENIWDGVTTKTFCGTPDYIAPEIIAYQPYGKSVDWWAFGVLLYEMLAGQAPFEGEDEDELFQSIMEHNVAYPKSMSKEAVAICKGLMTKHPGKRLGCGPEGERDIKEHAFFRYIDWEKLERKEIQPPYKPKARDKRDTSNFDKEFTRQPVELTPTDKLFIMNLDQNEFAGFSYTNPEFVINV
Chain of Tyrosine-protein kinase JAK3 (P52333 whole entry): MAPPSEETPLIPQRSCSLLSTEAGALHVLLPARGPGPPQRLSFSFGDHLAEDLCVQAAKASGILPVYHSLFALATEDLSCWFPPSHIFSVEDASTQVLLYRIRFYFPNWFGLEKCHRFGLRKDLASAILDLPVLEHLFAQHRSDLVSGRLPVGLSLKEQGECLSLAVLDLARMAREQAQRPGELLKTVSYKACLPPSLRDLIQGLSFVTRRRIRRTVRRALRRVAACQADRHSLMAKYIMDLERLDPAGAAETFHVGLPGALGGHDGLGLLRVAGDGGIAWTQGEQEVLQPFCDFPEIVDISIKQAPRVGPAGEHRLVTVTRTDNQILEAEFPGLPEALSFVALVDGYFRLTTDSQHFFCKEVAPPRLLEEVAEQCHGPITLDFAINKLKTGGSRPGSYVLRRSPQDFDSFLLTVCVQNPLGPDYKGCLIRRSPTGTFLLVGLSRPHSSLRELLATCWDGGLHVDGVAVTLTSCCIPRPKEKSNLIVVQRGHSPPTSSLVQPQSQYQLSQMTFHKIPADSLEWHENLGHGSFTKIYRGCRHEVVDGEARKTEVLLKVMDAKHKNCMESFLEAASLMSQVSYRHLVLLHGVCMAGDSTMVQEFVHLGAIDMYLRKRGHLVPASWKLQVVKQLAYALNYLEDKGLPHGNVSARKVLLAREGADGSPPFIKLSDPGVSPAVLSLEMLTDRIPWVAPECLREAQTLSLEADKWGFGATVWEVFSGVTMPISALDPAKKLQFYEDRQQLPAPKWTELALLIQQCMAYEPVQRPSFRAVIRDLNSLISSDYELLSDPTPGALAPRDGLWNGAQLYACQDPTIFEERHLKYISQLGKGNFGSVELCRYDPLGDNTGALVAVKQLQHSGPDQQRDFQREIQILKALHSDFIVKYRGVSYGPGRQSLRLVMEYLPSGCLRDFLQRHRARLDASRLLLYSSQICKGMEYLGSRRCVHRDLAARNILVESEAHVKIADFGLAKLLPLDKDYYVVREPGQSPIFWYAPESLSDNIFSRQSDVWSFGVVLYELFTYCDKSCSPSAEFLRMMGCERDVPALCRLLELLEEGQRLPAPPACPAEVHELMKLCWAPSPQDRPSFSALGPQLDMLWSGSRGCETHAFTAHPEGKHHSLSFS
Chain of Serine/threonine-protein kinase pim-1 (Mus musculus) (P06803 whole entry, looked up): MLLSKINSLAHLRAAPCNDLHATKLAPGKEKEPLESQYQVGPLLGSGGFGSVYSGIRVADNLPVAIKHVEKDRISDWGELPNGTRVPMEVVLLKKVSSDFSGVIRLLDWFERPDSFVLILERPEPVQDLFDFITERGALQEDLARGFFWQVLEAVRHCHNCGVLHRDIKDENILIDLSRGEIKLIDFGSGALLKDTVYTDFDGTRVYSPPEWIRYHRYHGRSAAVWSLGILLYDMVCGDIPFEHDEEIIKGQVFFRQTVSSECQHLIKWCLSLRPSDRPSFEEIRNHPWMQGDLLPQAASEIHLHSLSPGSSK

CN1CCN(C[C@@H](NC(=O)C[C@H]2CNC(=O)c3cc(-c4cccc(Cl)c4)cn32)C2CCCCC2)CC1
16%: inhibition at 10 µM (hERG (KCNH2))
0.012 µM: IC50 [18]
0.05 µM·h: AUC [25]
28 mL/min/kg: clearance [11]
6.66 µM: IC50 (RPMI-8226)
5.9 mL/min/kg: CLint scaled [23]
1.53 µM: IC50 (MV4-11)
21 mL/min/kg: CLint scaled [26]
> 10 µM: IC50 (Casein kinase II) | IC50 [1] | IC50 [2] | IC50 (Cytochrome P450 3A4) | IC50 [3] | IC50 [4] | IC50 [5] | IC50 [7] | IC50 [8] | IC50 [9] | IC50 [10] | IC50 [13] | IC50 [14] | IC50 [15] | IC50 [16] | IC50 [17] | IC50 [19] | IC50 [20] | IC50 [21] | IC50 [22] | IC50 (Ephrin type-A receptor 2) | IC50 (Insulin receptor) | IC50 [24]
active: inhibition [6] Dose-dependent effect
63 mL/min/kg: CLint scaled [12]
